The experiment has as its system T1, MnP (manganese peroxidase).
T1 construct: gene MNP1; commercial recombinant enzyme (Sigma Aldrich), expressed in corn
Kind of experiment: UV/Vis quinone formation at […] nm, Michaelis-Menten fit. The settings on record: with 1 mM Mn(II); 0.05% H2O2; 0.1 M sodium acetate pH 4.5; 25 °C; 50 µM MnP; 8 min; apparent, oxidation may be mediated by Mn(III). Format: biochemical, Phanerochaete chrysosporium.

Each structure is given as a SMILES string.

On to `O=C(O)c1cc(O)c(O)c(O)c1` [gallic acid], for which the Km came to 660 µM. The figure for `Oc1cccc(O)c1O` [pyrogallol] is 280 µM.

The term Km denotes the concentration of substrate that gives half-maximal velocity.

These data come from publication PMC12029925, “Kinetics of Manganese Peroxidase Using Simple Phenolic Compounds as Substrates” (Metabolites, 2025).
